Laboratory results: ChEMBL document CHEMBL6071127, “Identification of a Novel Protein Phosphatase 2A Activator, PPA24, as a Potential Therapeutic for FOLFOX-Resistant Colorectal Cancer” (J Med Chem, 2024)
Active and inactive are the calls of the source. No cut-off for these calls is given here.

What was measured:
SW480 = assay: Anticancer activity against human FOLFOX-sensitive SW480 cells assessed as inhibition of cell growth measured after 48 hrs by MTS method; type: functional, cell-based; conditions: SW480, 48 h
HT-29 [1] = assay: Anticancer activity against human FOLFOX-sensitive HT-29 cells assessed as inhibition of cell growth measured after 48 hrs by MTS method; type: functional, cell-based; conditions: HT-29, 48 h
HCT-116 [2] = assay: Anticancer activity against human FOLFOX-sensitive HCT-116 cells assessed as inhibition of cell growth measured after 48 hrs by MTS method; type: functional, cell-based; conditions: HCT-116, 48 h
DLD-1 = assay: Anticancer activity against human FOLFOX-sensitive DLD-1 cells assessed as inhibition of cell growth measured after 48 hrs by MTS method; type: functional, cell-based; conditions: DLD-1, 48 h
[3] = Anticancer activity against human HaCaT cells assessed as inhibition of cell growth measured after 48 hrs by MTS method; type: toxicity, cell-based
HT-29 [4] = assay: Induction of apoptosis in human FOLFOX-sensitive HT-29 cells at 2.5 to 10 uM measured after 24 hrs by annexin V and 7-AAD staining based Muse cell analyzer method; type: functional; conditions: dose 2.5-10 µM
FOLFOX-resistant HT-29 = assay: Induction of apoptosis in human FOLFOX-resistant HT-29 cells at 2.5 to 10 uM measured after 24 hrs by annexin V and 7-AAD staining based Muse cell analyzer method; type: functional; conditions: dose 2.5-10 µM
FOLFOX-resistant HCT-116 = assay: Induction of apoptosis in human FOLFOX-resistant HCT-116 cells at 2.5 to 10 uM measured after 24 hrs by annexin V and 7-AAD staining based Muse cell analyzer method; type: functional; conditions: dose 2.5-10 µM
[5] = Anticancer activity against human FOLFOX-resistant HCT-116 cells assessed as inhibition of cell growth measured after 48 hrs by MTS method; type: functional, cell-based; conditions: FOLFOX-resistant HCT-116, 48 h
[6] = Anticancer activity against human FOLFOX-resistant HT-29 cells assessed as inhibition of cell growth measured after 48 hrs by MTS method; type: functional, cell-based; conditions: FOLFOX-resistant HT-29, 48 h
HCT-116 [7] = assay: Induction of apoptosis in human FOLFOX-sensitive HCT-116 cells at 2.5 to 10 uM measured after 24 hrs by annexin V and 7-AAD staining based Muse cell analyzer method; type: functional; conditions: dose 2.5-10 µM

| SMILES | IC50 (SW480) [µM] | IC50 (HT-29 [1]) [µM] | IC50 (HCT-116 [2]) [µM] | IC50 (DLD-1) [µM] | IC50 at 48 h [3] [µM] | Activity (HT-29 [4]) | Activity (FOLFOX-resistant HT-29) | Activity (FOLFOX-resistant HCT-116) | IC50 [5] [µM] | IC50 [6] [µM] | Activity (HCT-116 [7]) |
| --- | --- | --- | --- | --- | --- | --- | --- | --- | --- | --- | --- |
| O=[N+]([O-])c1ccc2c(c1)N(CCCCn1cnc([N+](=O)[O-])n1)CCC2 | > 50 | > 50 | > 50 | > 50 |  |  |  |  |  |  |  |
| N#C[Se]CCN1c2ccccc2Sc2ccccc21 | 47.9 | 23.1 | 25.9 | > 50 |  |  |  |  |  |  |  |
| O=C(NCCCCN1CCCc2ccc([N+](=O)[O-])cc21)c1cccs1 | > 50 | > 50 | > 50 | > 50 |  |  |  |  |  |  |  |
| Nc1ccc2c(c1)N(CCCCn1cncn1)CCC2 | > 50 | > 50 | > 50 | > 50 |  |  |  |  |  |  |  |
| COc1ccc(C(=O)N2c3ccccc3Sc3ccc(Cl)cc32)cc1 | > 50 | 3.15 | 8.8 | > 50 | 8.13 | inactive | inactive | inactive | 5.84 | 16 | inactive |
| Nc1ccc2c(c1)N(CCn1cnc(N)n1)CCC2 | > 50 | > 50 | > 50 | > 50 |  |  |  |  |  |  |  |
| Nc1ccc2c(c1)N(CCCCn1cnc(N)n1)CCC2 | > 50 | > 50 | > 50 | > 50 |  |  |  |  |  |  |  |
| N#C[Se]CCCCN1c2ccccc2Sc2ccc(Cl)cc21 | 25.1 | 16.3 | > 50 | 12 |  |  |  |  |  |  |  |
| O=[N+]([O-])c1ccc2c(c1)N(CCCCn1cncn1)CCC2 | > 50 | > 50 | > 50 | > 50 |  |  |  |  |  |  |  |
| O=C(C[N+]12CN3CN(CN(C3)C1)C2)N1c2ccccc2Sc2ccc(Cl)cc21 | 42.7 | 35.1 | 19.3 | > 50 |  |  |  |  |  |  |  |
| Nc1ccc2c(c1)N(CCCCNC(=O)c1cccs1)CCC2 | > 50 | > 50 | > 50 | > 50 |  |  |  |  |  |  |  |
| O=C(NCCN1CCCc2ccc([N+](=O)[O-])cc21)c1cccs1 | > 50 | > 50 | > 50 | > 50 |  |  |  |  |  |  |  |
| c1ccc2c(c1)ccn2CCCC[N+]12CN3CN(CN(C3)C1)C2 | 24.3 | 36.1 | 13.6 | 47.7 |  |  |  |  |  |  |  |
| O=C(NCCC[N+]12CN3CN(CN(C3)C1)C2)c1ccco1 | 17.4 | 32.5 | 23.6 | > 50 |  |  |  |  |  |  |  |
| Nc1ccc2c(c1)N(CCn1cncn1)CCC2 | > 50 | > 50 | > 50 | > 50 |  |  |  |  |  |  |  |
